In ChEMBL document CHEMBL1201862, “PubChem BioAssay data set” (2004):
Calls of active or inactive are those of the source.

What was measured:
[1] = inhibitors of SNCA 5'UTR-driven reporter translation, confirmation, H4 neuroglioma cells, luminescence (AID 1988); type: functional, cell-based
[2] = Luminescence Cell-Based Dose Response HTS to Identify Inhibitors of 5'UTR Stem-Loop Driven Prion Protein mRNA Translation in H4 Neuroglioblastoma Cells. [Related pubchem assays: 1827 (Project Summary), 1813 (Primary HTS)]; type: functional
[3] = inhibitors of firefly luciferase expression or activity, dose response, H4 neuroglioma cells, luminescence (AID 1990); type: functional, cell-based
Cytochrome P450 2C19 = Cytochrome P450 2C19 (Homo sapiens, UniProt P33261); experiment: Cytochrome panel assay with activity outcomes. Panel member name: p450-cyp2c19 Compounds with AC50 equal or less than 10 uM are considered active; type: functional
Sequence of Cytochrome P450 2C19 (P33261 whole entry): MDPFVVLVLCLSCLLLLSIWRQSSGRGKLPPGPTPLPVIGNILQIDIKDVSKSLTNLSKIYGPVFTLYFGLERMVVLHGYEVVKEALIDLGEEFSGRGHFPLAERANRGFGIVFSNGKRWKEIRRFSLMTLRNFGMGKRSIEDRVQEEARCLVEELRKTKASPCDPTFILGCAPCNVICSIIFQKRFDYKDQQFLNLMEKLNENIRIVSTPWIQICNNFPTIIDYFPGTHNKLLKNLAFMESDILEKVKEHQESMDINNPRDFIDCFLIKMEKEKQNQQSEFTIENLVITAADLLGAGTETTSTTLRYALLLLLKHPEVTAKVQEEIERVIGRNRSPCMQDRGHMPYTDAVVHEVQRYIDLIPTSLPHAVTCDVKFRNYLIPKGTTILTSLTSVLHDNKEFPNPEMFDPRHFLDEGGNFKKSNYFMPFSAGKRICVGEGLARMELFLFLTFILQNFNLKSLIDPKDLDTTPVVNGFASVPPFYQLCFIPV

Cytochrome P450 3A4 = Cytochrome P450 3A4 (Homo sapiens, UniProt P08684);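 note: CYP3A4 tested as one member of a cytochrome P450 panel screen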
Sequence of Cytochrome P450 3A4 (P08684 whole entry): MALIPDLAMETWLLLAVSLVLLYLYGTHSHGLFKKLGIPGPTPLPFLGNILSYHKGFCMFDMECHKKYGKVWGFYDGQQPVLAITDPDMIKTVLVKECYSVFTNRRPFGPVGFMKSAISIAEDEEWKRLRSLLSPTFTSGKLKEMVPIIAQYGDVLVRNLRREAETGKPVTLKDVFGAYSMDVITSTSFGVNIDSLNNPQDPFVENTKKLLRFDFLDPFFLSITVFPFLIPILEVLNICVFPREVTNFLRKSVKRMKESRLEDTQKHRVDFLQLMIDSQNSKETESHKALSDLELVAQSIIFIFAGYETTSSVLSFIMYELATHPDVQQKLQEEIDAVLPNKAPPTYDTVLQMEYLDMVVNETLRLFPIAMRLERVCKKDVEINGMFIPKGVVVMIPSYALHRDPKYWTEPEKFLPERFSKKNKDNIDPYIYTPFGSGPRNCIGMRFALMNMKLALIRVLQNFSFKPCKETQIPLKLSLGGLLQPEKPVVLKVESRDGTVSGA

Cytochrome P450 2D6 = Cytochrome P450 2D6 (Homo sapiens, UniProt P10635);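 note: CYP2D6 member of a cytochrome P450 panel assay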
Sequence of Cytochrome P450 2D6 (P10635 whole entry): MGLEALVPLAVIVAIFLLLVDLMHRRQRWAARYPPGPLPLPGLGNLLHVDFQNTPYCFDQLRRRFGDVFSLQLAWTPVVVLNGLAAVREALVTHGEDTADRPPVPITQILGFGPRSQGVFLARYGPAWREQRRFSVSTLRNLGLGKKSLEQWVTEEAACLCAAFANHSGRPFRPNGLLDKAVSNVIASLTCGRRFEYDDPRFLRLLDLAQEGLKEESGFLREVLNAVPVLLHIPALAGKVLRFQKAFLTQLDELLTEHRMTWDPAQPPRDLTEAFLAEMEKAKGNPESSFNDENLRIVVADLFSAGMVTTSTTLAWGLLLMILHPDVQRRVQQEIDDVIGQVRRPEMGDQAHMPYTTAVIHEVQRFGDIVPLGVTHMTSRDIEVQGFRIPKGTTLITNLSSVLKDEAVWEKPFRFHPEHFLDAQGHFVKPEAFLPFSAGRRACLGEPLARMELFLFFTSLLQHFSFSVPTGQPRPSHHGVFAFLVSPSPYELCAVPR

[4] = NIH-3T3 fibroblast cytotoxicity, dose response, cytotoxicity control, cell-based, fluorescence, Alamar Blue, secondary assay (AID 2327); type: functional;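 note: NIH-3T3 mouse fibroblasts cultured with fluconazole at 8 µg/mL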
Cytochrome P450 1A2 = biological target: T1, Cytochrome P450 1A2 (Homo sapiens, UniProt P05177);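 note: PubChem cytochrome P450 panel assay, CYP1A2 panel member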
T1 sequence (P05177 whole entry): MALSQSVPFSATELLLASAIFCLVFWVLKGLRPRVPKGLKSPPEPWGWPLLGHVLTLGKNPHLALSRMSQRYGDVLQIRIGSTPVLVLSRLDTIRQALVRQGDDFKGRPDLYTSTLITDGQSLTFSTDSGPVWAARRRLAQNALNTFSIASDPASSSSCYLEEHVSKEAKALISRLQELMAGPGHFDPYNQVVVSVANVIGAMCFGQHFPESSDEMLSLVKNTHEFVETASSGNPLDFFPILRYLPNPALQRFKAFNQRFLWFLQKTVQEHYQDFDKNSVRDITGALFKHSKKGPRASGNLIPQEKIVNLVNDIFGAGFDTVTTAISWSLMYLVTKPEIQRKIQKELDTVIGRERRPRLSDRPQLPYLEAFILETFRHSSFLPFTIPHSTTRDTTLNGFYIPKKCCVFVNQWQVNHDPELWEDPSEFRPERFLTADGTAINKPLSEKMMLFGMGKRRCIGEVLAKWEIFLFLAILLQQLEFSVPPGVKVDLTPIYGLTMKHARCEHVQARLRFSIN

Cytochrome P450 2C9 = Cytochrome P450 2C9 (Homo sapiens, UniProt P11712)
Sequence of Cytochrome P450 2C9 (P11712 whole entry): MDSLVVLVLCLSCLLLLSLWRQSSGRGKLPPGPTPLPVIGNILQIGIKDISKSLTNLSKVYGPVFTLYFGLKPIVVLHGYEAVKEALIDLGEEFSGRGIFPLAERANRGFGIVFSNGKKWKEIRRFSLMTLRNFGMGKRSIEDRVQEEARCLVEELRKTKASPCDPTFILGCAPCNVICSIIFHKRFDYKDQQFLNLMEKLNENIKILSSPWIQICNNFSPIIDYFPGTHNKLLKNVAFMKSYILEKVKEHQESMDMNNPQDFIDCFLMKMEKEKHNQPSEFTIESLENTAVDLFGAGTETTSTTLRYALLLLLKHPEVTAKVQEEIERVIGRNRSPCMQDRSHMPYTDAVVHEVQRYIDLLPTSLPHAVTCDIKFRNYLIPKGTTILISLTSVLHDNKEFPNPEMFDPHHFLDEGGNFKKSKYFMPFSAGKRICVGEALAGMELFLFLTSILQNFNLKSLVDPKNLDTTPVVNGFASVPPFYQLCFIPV

[5] = Luminescence Cell-Based Dose Confirmation HTS to Identify Inhibitors of Platelet Dense Granule Release. [Related pubchem assays: 1663 (Primary HTS), 1678 (Summary of Project)]; type: functional
[6] = biological target: Luciferin 4-monooxygenase (Photinus pyralis, UniProt P08659); experiment: firefly luciferase enzyme inhibitors, dose response, biochemical, luminescence (AID 1891)
Sequence of Luciferin 4-monooxygenase (P08659 whole entry): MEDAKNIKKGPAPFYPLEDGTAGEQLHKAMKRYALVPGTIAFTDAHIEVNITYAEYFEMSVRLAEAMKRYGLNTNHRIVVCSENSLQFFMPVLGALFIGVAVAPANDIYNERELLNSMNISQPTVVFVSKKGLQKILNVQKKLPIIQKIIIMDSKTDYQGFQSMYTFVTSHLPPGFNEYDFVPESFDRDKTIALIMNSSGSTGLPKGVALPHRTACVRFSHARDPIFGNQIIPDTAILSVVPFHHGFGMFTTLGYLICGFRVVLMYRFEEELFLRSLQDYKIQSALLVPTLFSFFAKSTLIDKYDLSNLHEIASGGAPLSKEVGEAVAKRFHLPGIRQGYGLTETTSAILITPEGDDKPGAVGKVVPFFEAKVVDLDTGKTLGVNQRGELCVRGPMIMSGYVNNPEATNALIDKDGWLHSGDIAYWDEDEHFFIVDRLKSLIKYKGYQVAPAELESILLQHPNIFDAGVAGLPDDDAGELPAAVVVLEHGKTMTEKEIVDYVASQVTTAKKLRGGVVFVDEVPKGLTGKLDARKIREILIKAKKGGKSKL

[7] = cytotoxicity toward NIH3T3 fibroblasts, dose response, counter-screen, cell-based, ATP luminescence, mouse fibroblasts (AID 2010); type: functional;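 note: cells exposed to compound for about 90 hours before reading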
[8] = inhibitors of intracellular T. cruzi replication, confirmation, NIH3T3 host cells, beta-gal luminescence (AID 2044); type: functional, cell-based;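 note: intracellular parasites grown in NIH/3T3 mouse fibroblasts as host cells; luminescent beta-galactosidase reporter signal from transgenic T. cruzi replicating inside host cells; inhibitors lower the luminescence signal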
INS1 = experiment: beta cell apoptosis inhibitors, cytokine rescue, dose response, luminescence, retest (AID 449756); type: functional, cell-based; details: Rattus norvegicus;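 note: cell death triggered by IL-1 beta plus TNF-alpha plus IFN-gamma mixture; protective hits raise ATP signal compared with cytokine alone wells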
Paired box protein Pax-8 = Paired box protein Pax-8 (Homo sapiens, UniProt Q06710); experiment: inhibitors of PAX8-driven TPO luciferase reporter, dose response, RMG-I cells, cherry-pick (AID 687027); type: functional, cell-based;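 note: luciferase reporter driven by Pax8 target thyroperoxidase promoter measured by SteadyGlo luminescence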
Sequence of Paired box protein Pax-8 (Q06710 whole entry): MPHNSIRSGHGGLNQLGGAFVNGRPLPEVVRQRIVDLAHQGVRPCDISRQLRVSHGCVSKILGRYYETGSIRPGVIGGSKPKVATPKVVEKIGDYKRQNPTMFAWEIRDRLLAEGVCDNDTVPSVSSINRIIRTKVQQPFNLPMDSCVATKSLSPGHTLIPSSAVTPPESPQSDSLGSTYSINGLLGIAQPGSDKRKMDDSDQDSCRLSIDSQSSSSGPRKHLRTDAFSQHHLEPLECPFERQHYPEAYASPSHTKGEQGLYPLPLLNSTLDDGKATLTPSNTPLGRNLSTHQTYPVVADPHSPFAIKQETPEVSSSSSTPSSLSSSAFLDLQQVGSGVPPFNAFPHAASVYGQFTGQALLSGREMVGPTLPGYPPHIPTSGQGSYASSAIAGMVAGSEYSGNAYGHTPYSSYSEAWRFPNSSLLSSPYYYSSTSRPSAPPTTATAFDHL

CC1C(C#N)=C(N)OC2=C1C(=O)CC(C)(C)C2 (stereo not drawn)
EC50 [1]: 19.8 µM (active)
EC50 [2]: > 120 µM (not active)
EC50 [3]: > 120 µM (not active)

CC(NC(=O)c1cccc(F)c1)C(c1cccs1)N1CCN(C)CC1 (stereo not drawn)
AC50 (Cytochrome P450 2C19; read-out: AC50): 31.6 µM (inconclusive)
AC50 (Cytochrome P450 3A4): 15.8 µM (inconclusive)
AC50 (Cytochrome P450 2D6): 15.8 µM (inconclusive)

Cc1cc(Cl)ccc1OCc1cn2cccnc2n1
EC50 [4]: > 160 µM (inactive)

Cn1cc(-c2nc3cncnc3n(Cc3ccccc3Cl)c2=O)c2ccccc21
AC50 (Cytochrome P450 3A4): 7.94 µM (inconclusive)
AC50 (Cytochrome P450 1A2): 3.16 µM (inconclusive)

COc1ccc2c(c1)O[C@@H](c1cccc(C(F)(F)F)c1)[C@H](O)C2=O
EC50 [1]: > 120 µM (not active)
EC50 [2]: > 120 µM (not active)
EC50 [3]: > 120 µM (not active)

COCCn1c(=O)c(-c2ccc(F)cc2)nc2cnc(N(C)C)nc21
AC50 (Cytochrome P450 2C9): 12.6 µM (inconclusive)
AC50 (Cytochrome P450 2D6): 0.631 µM (inconclusive)

CN(C)S(=O)(=O)c1cccc(NC(=O)CSc2nnnn2-c2ccccc2)c1
EC50 [5]: > 112 µM (not active)
EC50 [6]: > 112 µM (not active)

FC(F)(F)c1ccccc1-c1cc(NCCN2CCOCC2)ncn1
AC50 (Cytochrome P450 1A2): 12.6 µM (inconclusive)
AC50 (Cytochrome P450 2D6): 39.8 µM (inconclusive)

CCCCCC1=C2CNC(CC(C)C)(C(=O)OC)C=C2C(C)C1=O (stereo not drawn)
AC50 (Cytochrome P450 2C19; read-out: AC50): 6.31 µM (inconclusive)
AC50 (Cytochrome P450 3A4): 15.8 µM (inconclusive)
AC50 (Cytochrome P450 1A2): 25.1 µM (inconclusive)

ON(CCc1ccncc1)Cc1ccccc1
AC50 (Cytochrome P450 2D6): 6.31 µM (inconclusive)

Cc1sc(NC(=O)c2ccco2)c(C(c2cccnc2)N2CCN(C)CC2)c1C (stereo not drawn)
AC50 (Cytochrome P450 2C9): 2.82 µM (inconclusive)
AC50 (Cytochrome P450 2D6): 12.6 µM (inconclusive)

COCC(=O)N1CCC2(CC1)CN(Cc1ccccc1OC)C2
AC50 (Cytochrome P450 2C19; read-out: AC50): 39.8 µM (inconclusive)

CCOC(=O)N1CCC(NC(=O)C2CCN(S(=O)(=O)N3CCCC3)CC2)CC1
AC50 (Cytochrome P450 2C19): inconclusive

CNC(=O)NC(=O)CSc1nnc(-c2ccco2)n1Cc1ccccc1
AC50 (Cytochrome P450 2C19; read-out: AC50): 35.5 µM (inconclusive)
AC50 (Cytochrome P450 3A4): 22.4 µM (inconclusive)

CC(C)CNC(=O)COc1ccccc1[N+](=O)[O-]
EC50 [5]: 18.7 µM (active)
EC50 [6]: > 112 µM (not active)

CC(=O)NCCNc1ncnc2ccc(-c3ccccc3Cl)cc12
AC50 (Cytochrome P450 2C19; read-out: AC50): 20 µM (inconclusive)

O=C(/C=C\C=C/c1ccc2c(c1)OCO2)N1CCCCC1
AC50 (Cytochrome P450 2D6): 12.6 µM (inconclusive)

CCOc1ccc(NC(=O)N2CCC(C(N)=O)(N3CCCCC3)CC2)cc1
AC50 (Cytochrome P450 2C19; read-out: AC50): 8.91 µM (inconclusive)

Cc1cc2nc(O)c([C@H](C)C(=O)c3ccc(Cl)cc3)nc2cc1C
AC50 (Cytochrome P450 2C19; read-out: AC50): 0.0794 µM (inconclusive)
AC50 (Cytochrome P450 1A2): 0.501 µM (inconclusive)

COc1cccc(-c2noc(-c3cccnc3)n2)c1
AC50 (Cytochrome P450 2D6): 20 µM (inconclusive)

O=C1[C@@H]2[C@@H](C(=O)N1c1ccc(OCc3ccccc3)cc1)[C@@H]1c3ccccc3[C@@H]2[n+]2ccccc21
AC50 (Cytochrome P450 2D6): 3.98 µM (inconclusive)

COc1ccc(Cc2nnc(NC(=O)Cn3cnc4c3c(=O)n(C)c(=O)n4C)s2)cc1OC
AC50 (Cytochrome P450 2C19; read-out: AC50): 28.2 µM (inconclusive)
AC50 (Cytochrome P450 2C9): 20 µM (inconclusive)

Cc1ccc(Cl)cc1NC(=O)c1ccc(Cn2cc(Cl)cn2)cc1
EC50 [1]: 12.2 µM (active)
EC50 [2]: 13.7 µM (active)
EC50 [3]: 14.4 µM (active)

O=C(NCCc1csc(-c2cccnc2)n1)c1cccs1
EC50 [5]: > 112 µM (not active)
EC50 [6]: > 112 µM (not active)

COc1cccc(-c2noc(C3CCCN(C(=O)c4ccccc4OC)C3)n2)c1 (stereo not drawn)
EC50 [5]: > 112 µM (not active)
EC50 [6]: > 112 µM (not active)

O=C(Oc1ccc([N+](=O)[O-])cc1)N1CCC(N2CCCCC2)CC1
AC50 (Cytochrome P450 1A2): 20 µM (inconclusive)
AC50 (Cytochrome P450 2D6): 39.8 µM (inconclusive)

Cc1cc(NC(=O)c2c(F)cccc2F)n(-c2nc3ccccc3[nH]2)n1
AC50 (Cytochrome P450 3A4): 3.55 µM (inconclusive)
AC50 (Cytochrome P450 2C9): 4.47 µM (inconclusive)
AC50 (Cytochrome P450 2D6): 39.8 µM (inconclusive)

CCN(CC)c1nc(O)nc(N(CC)CC)n1
EC50 [1]: 44.7 µM (active)
EC50 [2]: > 120 µM (not active)
EC50 [3]: > 120 µM (not active)

COC(=O)C1(C)CN(S(=O)(=O)c2ccc(C)cc2)c2cc(OC)ccc2C1=O (stereo not drawn)
EC50 [5]: > 112 µM (not active)
EC50 [6]: > 112 µM (not active)

O=C1[C@H]2[C@H]3[C@H](O)[C@H](O)C/C(=N/OCc4ccccc4)[C@H]3CC[C@@H]2C(=O)N1Cc1ccc2c(c1)OCO2
AC50 (Cytochrome P450 2C19; read-out: AC50): 2 µM (inconclusive)

O=C(c1csnn1)N1CCC2(CCCN(Cc3cc(C(F)(F)F)cc(C(F)(F)F)c3)C2)CC1
AC50 (Cytochrome P450 1A2): 12.6 µM (inconclusive)
AC50 (Cytochrome P450 2C9): 39.8 µM (inconclusive)

COC(=O)[C@@]1(Cc2ccc(OC)cc2)[C@H]2c3cc(C(=O)N4CCCC4)n(CCCNc4ncc(C(F)(F)F)cc4Cl)c3C[C@H]2CN1C(=O)c1ccccc1
AC50 (Cytochrome P450 3A4): 1.26 µM (inconclusive)
AC50 (Cytochrome P450 1A2): 31.6 µM (inconclusive)

CCOC(=O)c1ccc(NC(=O)CSc2nc3c(c(=O)n2C)SC(C)C3)cc1 (stereo not drawn)
EC50 [5]: > 112 µM (not active)
EC50 [6]: > 112 µM (not active)

CC(C)CN=C(S)NC1CC2CCCC(C1)N2Cc1ccco1 (stereo not drawn)
AC50 (Cytochrome P450 2C19; read-out: AC50): 39.8 µM (inconclusive)

Cc1nc2sccn2c(=O)c1S(=O)(=O)N1CCN(c2cccc(Cl)c2)CC1
EC50 [5]: > 112 µM (not active)
EC50 [6]: > 112 µM (not active)

COCOc1ccc(Br)cc1C(=O)[C@H]1O[C@H]1c1cccc(OC)c1
AC50 (Cytochrome P450 2D6): 3.16 µM (inconclusive)

CC(C)(C)c1ccc(Oc2ccc(NC(=O)c3ccccc3C(=O)O)cn2)cc1
EC50 [1]: 11.6 µM (active)
EC50 [2]: 12 µM (active)
EC50 [3]: 11 µM (active)

Cc1cc(=O)oc2cc(OCCSCCN3CCOCC3)ccc12
EC50 [5]: > 112 µM (not active)
EC50 [6]: > 112 µM (not active)

O=C(Nc1ccc(-c2csc(-c3ccccc3)n2)cc1)c1ccccc1Cl
EC50 [7]: 9.89 µM (active)
EC50 [8]: 1.57 µM (active)
AC50 (Cytochrome P450 1A2): 0.0708 µM (inconclusive)

CCN(CC)c1cc(C)c2cc(NC(=O)CNC(C)=O)ccc2n1
AC50 (Cytochrome P450 2C19): inconclusive
AC50 (Cytochrome P450 2C9): 0.891 µM (inconclusive)

COc1ccc(C2C3=C(CC(C)(C)CC3=O)Oc3ncn(CC(C)C)c(=N)c32)cc1 (stereo not drawn)
AC50 (Cytochrome P450 2C19; read-out: AC50): 39.8 µM (inconclusive)
AC50 (Cytochrome P450 2C9): 39.8 µM (inconclusive)

c1ccc(-[n+]2nc(Nc3cccc4ccccc34)sc2-c2c3ccccc3cc3ccccc23)cc1
AC50 (INS1): 3.17 µM (active)

CC(C)(C)C1CCc2c(sc(NC(=O)c3cc(C4CC4)on3)c2C#N)C1 (stereo not drawn)
EC50 [5]: 23.1 µM (active)
EC50 [6]: > 112 µM (not active)

Nc1nnc(SCc2ccc(Cl)cc2)s1
EC50 [5]: > 112 µM (not active)
EC50 [6]: > 112 µM (not active)

CC#CCCCC(=O)Nc1cc(OC)nc(OC)n1
AC50 (Cytochrome P450 2D6): 15.8 µM (inconclusive)

CC(=O)OC(C)(C)/C=C/C(=O)C(C)(O)C1C(O)CC2(C)C3CC=C4C(CC(O)C(=O)C4(C)C)C3(C)C(=O)CC12C (stereo not drawn)
AC50 (Paired box protein Pax-8): < 0.26 µM (active)

CCOC(=O)Nc1ccc(C)cc1NC(=O)OCC
AC50 (Cytochrome P450 2C19; read-out: AC50): 14.1 µM (inconclusive)
AC50 (Cytochrome P450 2C9): 25.1 µM (inconclusive)

COc1ccc(CCNC(=O)COC(=O)c2cnc(C)cn2)cc1
AC50 (Cytochrome P450 3A4): 22.4 µM (inconclusive)
AC50 (Cytochrome P450 1A2): 25.1 µM (inconclusive)
AC50 (Cytochrome P450 2C9): 0.00562 µM (inconclusive)

CCNS(=O)(=O)c1ccc(NS(C)(=O)=O)cc1
AC50 (Cytochrome P450 2C19): inconclusive
AC50 (Cytochrome P450 2C9): 7.94 µM (inconclusive)

CCOC(=O)C(NCCc1ccc(F)cc1)(NC(=O)CC)C(F)(F)F (stereo not drawn)
AC50 (INS1): > 260 µM (inactive)

C[C@@H]1CN([C@@H](C)CO)C(=O)c2cc(NS(=O)(=O)c3ccccc3)ccc2O[C@@H](C)CCCCO[C@@H]1CN(C)Cc1ccc(C(F)(F)F)cc1
AC50 (Paired box protein Pax-8): 5.71 µM (active)

COc1ccc(NC(=O)Nc2ccc3c(c2)C(=O)N([C@@H](C)CO)C[C@@H](C)[C@@H](CN(C)CC2CCCCC2)OCCCC[C@@H](C)O3)cc1
AC50 (Paired box protein Pax-8): 14.5 µM (active)

CO/N=C(/CNC(=O)c1cccc(Cl)c1)c1ccc(Cl)cc1
AC50 (Cytochrome P450 2D6): 25.1 µM (inconclusive)

CC(C)CN(C)c1nc(N)c(C(=O)N=C(N)N)nc1Cl [5-(N-METHYL-N-ISOBUTYL)AMILORIDE]
AC50 (Cytochrome P450 2C19; read-out: AC50): 31.6 µM (inconclusive)
